Values of other authors, collected in paper PMC5131364, “Pharmacologic modulation of RORγt translates to efficacy in preclinical and translational models of psoriasis and inflammatory arthritis” (Scientific Reports, 2016).

Key:
mouse CIA model = test system: mouse CIA model; design: method as in PMID 24574218; conditions: mouse CIA model ref 49; cited from earlier work
psoriatic skin = conditions: after 12 weeks of treatment ref 70; cited from earlier work

| Compound | joint inflammation and clinical scores (mouse CIA model) | IL-17A and IL-17F gene expression in psoriatic skin (psoriatic skin) |
| --- | --- | --- |
| OC(c1ccc(-c2ccc(CN3CCN(Cc4ccncc4)CC3)cc2)c(F)c1)(C(F)(F)F)C(F)(F)F [SR2211] | reduce joint inflammation | – |
| guselkumab: anti-IL-23 mAb | – | significant inhibition |
